These results are taken from patent publication US8778941B2, “TRPM8 antagonists and their use in treatments” (AMGEN Inc., priority 2011, dated 2014).

For orientation: IC50 means the concentration that inhibits the measured activity by half.

Assay [1] deals with T1, human TRPM8 (Homo sapiens, UniProt Q7Z2W7).
T1 construct: expressed in transfected cells; host or cells: Chinese hamster ovary (CHO) cells, T-REx tetracycline-inducible expression system (Invitrogen), co-transfected with pcDNA3.1 jellyfish aequorin
T1 sequence (Q7Z2W7 whole entry): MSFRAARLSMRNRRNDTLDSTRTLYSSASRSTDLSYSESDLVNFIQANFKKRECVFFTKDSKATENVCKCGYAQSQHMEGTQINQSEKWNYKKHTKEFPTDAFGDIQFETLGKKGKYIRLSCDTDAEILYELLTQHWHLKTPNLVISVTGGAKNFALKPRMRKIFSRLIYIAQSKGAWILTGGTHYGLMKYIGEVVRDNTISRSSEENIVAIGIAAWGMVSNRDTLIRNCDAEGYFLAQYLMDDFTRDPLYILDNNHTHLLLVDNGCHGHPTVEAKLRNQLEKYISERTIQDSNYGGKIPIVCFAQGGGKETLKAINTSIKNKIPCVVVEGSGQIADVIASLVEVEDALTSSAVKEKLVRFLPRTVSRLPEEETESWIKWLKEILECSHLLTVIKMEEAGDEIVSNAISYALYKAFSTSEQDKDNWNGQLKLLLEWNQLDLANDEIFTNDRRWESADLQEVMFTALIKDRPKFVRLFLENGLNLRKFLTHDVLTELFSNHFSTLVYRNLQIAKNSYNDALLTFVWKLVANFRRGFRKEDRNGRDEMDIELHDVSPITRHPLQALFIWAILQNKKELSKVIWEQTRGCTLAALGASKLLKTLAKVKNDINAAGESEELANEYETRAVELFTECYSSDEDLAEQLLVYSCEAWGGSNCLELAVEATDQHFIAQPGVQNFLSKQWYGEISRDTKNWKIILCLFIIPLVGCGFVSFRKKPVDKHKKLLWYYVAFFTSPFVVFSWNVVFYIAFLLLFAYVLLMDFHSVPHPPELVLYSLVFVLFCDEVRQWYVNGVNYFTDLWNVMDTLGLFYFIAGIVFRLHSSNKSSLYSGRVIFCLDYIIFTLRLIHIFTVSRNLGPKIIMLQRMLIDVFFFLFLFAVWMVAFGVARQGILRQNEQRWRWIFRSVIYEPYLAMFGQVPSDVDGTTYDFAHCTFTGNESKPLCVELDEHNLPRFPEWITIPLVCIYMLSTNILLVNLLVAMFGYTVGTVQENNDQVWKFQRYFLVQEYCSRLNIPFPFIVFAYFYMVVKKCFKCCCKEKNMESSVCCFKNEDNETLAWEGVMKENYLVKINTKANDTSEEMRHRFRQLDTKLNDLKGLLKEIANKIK
The experiment in a line: Luminescence readout assay for measuring intracellular calcium (aequorin), hTRPM8 antagonism. The settings on record: CHO cell line expressing human TRPM8 and aequorin; activation by icilin, L-menthol or cold buffer (table does not say which). The assay is classed as cell-based. A general note: A change in cytosolic calcium serves as a functional read-out for many receptors and channels.

Assay [2] relates to male C57BL/6 mice. Nature of the assay: Inhibition of icilin induced jumping in mice. The settings on record: given 1 hour before icilin (i.p. 20 mg/kg), jumps counted 10 minutes post-icilin. The format is in vivo. How it is done:
Icilin Biochemical Challenge Models
Inhibition of Icilin Induced Jumping in Mice
Example compounds at doses ranging from 0.01 to 10 mg/kg were administered to male C57BL/6 mice (18-25 g, Taconic, n=10/treatment) 1 hour before icilin to assess the ability to block the spontaneous jumps induced by icilin (i.p. suspended in 100% PEG400 at 20 mg/kg, 5 mL/kg). The total number of jumps was recorded during the 10 minutes post-icilin administration based on the number of photocell beam breaks from the vertical array of open field boxes (Kinder Scientific) while movement of the mice was restricted within a clear Plexiglas® cylinder 9.5 cm diameter×30 cm height.

Regarding `O=C(Nc1cccnc1)N[C@@H](c1ccc(C(F)(F)F)c(F)c1)c1ncccc1C(F)(F)F` [Example 1, (S)-1-((3-Fluoro-4-(trifluoromethyl)phenyl)(3-(trifluoromethyl)-pyridin-2-yl)methyl)-3-(pyridin-3-yl)urea bis(2,2,2-trifluoroacetate)], the IC50 in assay [1] came out at 0.023 µM. Moreover, in assay [2] (dose 10 mg/kg), the “% Inhibition of Mouse Jumping” value came to 75%.
For `O=C(Nc1cccnc1)N[C@@H](c1ccc(C(F)(F)F)c(F)c1)c1ncccc1F` [Example 29, (S)-1-((3-fluoro-4-(trifluoro-methyl)-phenyl)(3-fluoropyridin-2-yl)methyl)-3-(pyridin-3-yl)urea], in assay [1], the half-maximal inhibitory concentration (IC50) came to 0.017 µM. Also, the “% Inhibition of Mouse Jumping” value in assay [2] (dose 10 mg/kg) is given as 96%.
Consider `O=C(Nc1cccnc1)N[C@@H](c1ccc(C(F)(F)F)cc1)c1ncccc1C(F)(F)F` [Example 44, (S)-1-(pyridin-3-yl)-3-((4-(trifluoro-methyl)-phenyl)(3-(trifluoro-methyl)-pyridin-2-yl)-methyl)urea], for which, in assay [1], the 50% inhibitory concentration (IC50) is 0.023 µM. Besides, the “% Inhibition of Mouse Jumping” value in assay [2] (dose 10 mg/kg) is recorded as 74%.
Regarding `CC#Cc1cccnc1[C@@H](NC(=O)Nc1cccnc1)c1ccc(C(F)(F)F)cc1` [Example 51, (S)-1-((3-(prop-1-yn-1-yl)pyridin-2-yl)(4-(trifluoro-methyl)-phenyl)-methyl)-3-(pyridin-3-yl)-urea], in assay [1], the IC50 is 0.037 µM. For the same compound, the “% Inhibition of Mouse Jumping” value in assay [2] (dose 10 mg/kg) is 76%.
Taken in the same sequence, the figures for `CC1(C)C[C@H]1c1cccnc1[C@@H](NC(=O)Nc1cccnc1)c1ccc(C(F)(F)F)cc1` [Example 61, 1-((S)-(3-((R)-2,2-dimethylcyclopropyl)-pyridin-2-yl)-(4-(trifluoro-methyl)-phenyl)-methyl)-3-(pyridin-3-yl)-urea] were 0.062 µM and 90%.
On to `C[C@H](NC(=O)N[C@@H](c1ccc(C(F)(F)F)c(F)c1)c1ncccc1C(F)(F)F)C(F)(F)F` [Example 151, 1-((S)-(3-fluoro-4-(trifluoro-methyl)-phenyl)(3-(trifluoro-methyl)-pyridin-2-yl)-methyl)-3-((S)-1,1,1-trifluoro-propan-2-yl)-urea (2,2,2-trifluoro-acetate)], for which the IC50 in assay [1] was 0.039 µM. The “% Inhibition of Mouse Jumping” value in assay [2] (dose 3 mg/kg) is 30%.
On to `CCOC(=O)c1ccc(NC(=O)N[C@@H](c2ccc(C(F)(F)F)cc2)c2ncccc2C(F)(F)F)cc1` [Example 187, (S)-ethyl 4-(3-((4-(trifluoro-methyl)phenyl) (3-(trifluoro-methyl)pyridin-2-yl)methyl)ureido)benzoate (2,2,2-trifluoro-acetate)], for which the IC50 in assay [1] is 1.55 µM.
On the same count and under the same terms, to `O=C(Nc1cccnc1)N[C@@H](c1ccc(OC(F)(F)F)c(F)c1)c1ncccc1F` [Example 188, (S)-1-((3-fluoro-4-(trifluoro-methoxy)phenyl) (3-fluoropyridin-2-yl)methyl)-3-(pyridin-3-yl) urea] belongs 0.007 µM.
